Experimental data: patent US10821142B2, “Cancer treatment and diagnosis” (priority 2015, dated 2020)

Legend:
Format in all cases: cell-based, human
[1] = test system: STING and cGAS expression; assay: STING and cGAS expression in melanoma cells after 5AZADC (qPCR, immunoblot, RNA FISH); conditions: 5 days
Experimental: (§1) FIGS. 30A-30G show DNA demethylation partially recapitulated STING and cGAS expression in human melanoma cell lines. FIG. 30A, qPCR analysis of cGAS expression in indicated human melanoma cells mock treated or treated with 1 μM […] (5AZADC) for 5 days. FIG. 30B, Immunoblot analysis of STING in indicated human melanoma cells treated same as above. FIG. 30C, RNA FISH analysis of STING and cGAS in cells (same as above) treated with 5AZADC same as above. Representative images are shown at 1260×. Bar size, 400 nm. qPCR analysis of IFNB (FIG. 30D) and CXCL10 (FIG. 30E) in cells (same as above) treated with 5AZADC followed by dsDNA transfection at 3 μg/ml dsDNA90 for 3 hours. Immunofluorescence Microscopy analysis of IRF3 translocation (FIG. 30F) and STING translocation (FIG. 30G) in indicated cells treated same as in FIG. 30D. Representative images are shown at 1260×. Bar size, 500 nm.
In view of this, it was examined whether STING or cGAS expression was suppressed by epigenetic processes, such as by hypermethylation of the promoter regions (20, 21). Indeed, databank analysis indicated the presence of considerable CpG islands within the STING and cGAS promoter region. As such, melanoma cells lacking either STING or cGAS expression were treated with the de-methylating agent 5-Aza-2′-deoxycytidine (5AZADC) for 5 days and evaluated recapitulation of STING or cGAS expression. […] Therefore DNA hypermethylation is involved in silencing STING or cGAS expression in some melanoma cells (A375 and MeWo). However it is not yet clear why expression levels of STING are muted in the remainder melanoma cells (G361, SK-MEL-5). Other epigenetic modifications such as histone modifications or other transcription regulator factors such as miRNA could be involved in suppressing STING and/or cGAS expression (Jin et al., 2013, Yarbrough et al., 2014). To determine if reconstitution of STING/cGAS expression rescued STING-dependent dsDNA signaling, IFNB and CXCL10 induction was examined in 5AZADC treated melanoma cells following dsDNA stimulation. […] Thus, demethylating agents may be able to partially rescue STING-dependent innate immune gene induction in select melanoma cells.
Equal amounts of proteins were resolved on sodium dodecyl sulfate (SDS)-Polyacrylamide gels and then transferred to polyvinylidene fluoride (PVDF) membranes (Millipore). After blocking with 5% Blocking Reagent, membranes were incubated with various primary antibodies (and appropriate secondary antibodies). The image was resolved using an enhanced chemiluminescence system ECL (Thermo Scientific) and detected by autoradiography (Kodak). Antibodies: rabbit polyclonal antibody against STING was developed in our laboratory as described previously in Ishikawa et al, 2008; other antibodies were obtained from following sources: β-actin (Sigma Aldrich), p-IRF3 (Cell Signaling), IRF3 (Santa Cruz Biotechnology), p-p65 (Cell Signaling), p65 (Cell Signaling), p-TBK1 (Cell Signaling), TBK1 (Abcam), cGAS (Cell Signaling).
Total RNA was reverse-transcribed using QuantiTect Reverse Transcription Kit (Qiagen). Real-time PCR was performed with the TaqMan gene Expression Assay (Applied Biosystems).
STING and cGAS RNA probed was custom designed by ACD and RNA in situ Hybridization was performed using RNAscope® Multiplex Fluorescent Reagent Kit for cultured cells and 2-plex RNAscope® Reagent Kit for FFPE cells and tissue following the manufacturer's instruction.

cGAS expression = cGAS expression (qPCR) in cGAS negative colon cancer cells after epigenetic drug treatment; conditions: LS174T, SW480, SW1417, SW48, HT116; 5 days; rescued: SW480 and HT116
Experimental: FIGS. 5A-5F show STING activation and cytosolic DNA pathway in colon cancer cells were mostly defective: A series of colon cancer cells as well as normal cell controls were either mock transfected or transfected with dsDNA90 at 3 μg/ml for 3 hours, and were analyzed by Immunofluorescence Microscopy for STING translocation (FIG. 5A), IRF3 translocation (FIG. 5B), and p65 translocation (FIG. 5C). (FIG. 5D) Cells, same as above, were either mock transfected or transfected with dsDNA90 at 3 μg/ml for indicated time periods followed by immunoblot analysis for STING phosphorylation as well as phosphorylation of TBK1, IRF3 and p65. β-actin was used as loading control. (FIG. 5E) Cells, same as above, were analyzed by qPCR for cGAS expression. (FIG. 5F) Cells that have undetectable level of cGAS in E were treated with 1 μM 5-azacytidine for […], followed by qPCR analysis for cGAS expression. […] Error bars indicate s.d.
FIGS. 15A-15E show cGAS expression is suppressed in many human colon cancer cell lines and can be partially recapitulated through DNA demethylation. […]
To complement the above study, the expression of cGAS in the colon cancer cell-lines was examined. […] Given these findings, examination of the expression of cGAS in 47 human colon cancers at various stages of tumorigenesis was analyzed (FIG. 13C). Expression of cGAS was low to undetectable in approximately 30% of cells analyzed. […]

[2] = test system: STING-dependent dsDNA signaling; assay: STING signal activation by dsDNA90 in colon cancer cells after demethylation; conditions: for phosphorylation of TBK1 and IRF3 after dsDNA: 5AZADC 5 days then dsDNA90 3 μg/ml
[3] = test system: STING-dependent dsDNA signaling; assay: IFNB and CXCL10 induction by dsDNA in 5AZADC treated melanoma cells
Experimental: as §1
In view of this, it was examined whether STING or cGAS expression was suppressed by epigenetic processes, such as by hypermethylation of the promoter regions (20, 21). Indeed, databank analysis indicated the presence of considerable CpG islands within the STING and cGAS promoter region. As such, melanoma cells lacking either STING or cGAS expression were treated with the de-methylating agent 5-Aza-2′-deoxycytidine (5AZADC) for 5 days and evaluated recapitulation of STING or cGAS expression. […] Therefore DNA hypermethylation is involved in silencing STING or cGAS expression in some melanoma cells (A375 and MeWo). However it is not yet clear why expression levels of STING are muted in the remainder melanoma cells (G361, SK-MEL-5). Other epigenetic modifications such as histone modifications or other transcription regulator factors such as miRNA could be involved in suppressing STING and/or cGAS expression (Jin et al., 2013, Yarbrough et al., 2014). […]
Total RNA was reverse-transcribed using QuantiTect Reverse Transcription Kit (Qiagen). […]

SMILES: Nc1ncn([C@H]2C[C@H](O)[C@@H](CO)O2)c(=O)n1 [5AZADC, 5-Aza-2′-deoxycytidine]
- cGAS expression ([1]; A375 cells): cGAS expression was recovered
- STING expression ([1]; G361 and SK-MEL-5 cells): STING remained absent
- STING expression ([1]; MeWo cells, immunoblot and RNA FISH): STING expression was restored
- cGAS expression ([1]; SK-MEL-5 cells): partially restored
- cGAS expression ([1]; SK-MEL-24 cells): did not seem to affect cGAS expression level
- cells in which cGAS expression was rescued (cGAS expression): 2 of the 5
- expression of type I IFN and IL-1β after dsDNA ([2]; 5AZADC treated SW480 and HT116, dsDNA90 3 μg/ml for 3 hours): modest expression of type I IFN and IL-1β
- phosphorylation of TBK1 and IRF3 after dsDNA ([2]; LS174T (cGAS not rescued)): not LS174T cells regained phosphorylation of TBK1 and IRF3
- phosphorylation of TBK1 and IRF3 after dsDNA ([2]; SW480, HT116 (cGAS rescued)): regained phosphorylation of TBK1 and IRF3
- STING function following dsDNA stimulation ([3]; G361 or SK-MEL-5 cells): no STING function was observed
- IFNB induction following dsDNA stimulation ([3]; STING rescued MeWo cells): modest expression of IFNB
- IFNB and CXCL10 induction following dsDNA stimulation ([3]; cGAS rescued A375 cells): Induction of both IFNB and CXCL10 production was observed
